Experimental data: patent US8008333B2, “Single dose aromatase inhibitor for treating infertility” (Ares Trading S.A., priority 2001, dated 2011)
Structures can show the parent of a compound that is named as a salt. Where two headings read alike, the source gives them in different places.

Columns and labels:
[1] = system: endometrium of normal women; details: reduction in glandular density, increase in vacuolated cells; cited from earlier work
women with PCOS = details: PCOS group, cited from earlier work
ovulatory women = details: ovulatory group, one patient; cited from earlier work
[2] = in vivo; cited from earlier work
[3] = system: ovulatory women with unexplained infertility and anovulatory women with PCOS; test: letrozole in conjunction with FSH for controlled ovarian super ovulation; assay type: in vivo, human
[4] = system: low responders during ovarian stimulation; test: letrozole with FSH stimulation in low responders; assay type: in vivo, human
[5] = system: infertile patients (PCOS, unexplained infertility)
From the text: HCG 10,000 IU was given to trigger ovulation. Follicular development was monitored by transvaginal ultrasound and hormonal assays of estrogen and LH.

## CCN(CC)CCOc1ccc(C(=C(Cl)c2ccccc2)c2ccccc2)cc1 [CC, clomiphene citrate]
[1]
  effect on the endometrium: deleterious effect on the endometrium

## N#Cc1ccc(C(c2ccc(C#N)cc2)n2cncn2)cc1 [letrozole]
Women with PCOS; 3 patients
  pregnancy: 25%
Women with PCOS; 9 of 12 cycles
  ovulation: 75%
Ovulatory women
  pregnancy: 10%
[2]
  half-life: around two
[3]
  FSH dose required for achievement of adequate ovarian super ovulation: significantly lower
[4]
  ovarian response to FSH stimulation: improvement
[5]; Letrozole 5 days cycle
  Endometrial thickness on hCG day: 0.9 (0.2) cm
  Estradiol on hCG day: 919 (782) pmol/L
  Estradiol/mature follicle: 462 (257) pmol/L
  Follicles >1.5 cm: 1.9 (0.2)
  LH: 18.2 (16.2) IU/L
[5]; Letrozole single-dose cycles
  Endometrial thickness on hCG day: 0.9 (0.11) cm
  Estradiol on hCG day: 831 (359) pmol/L
  Estradiol/mature follicle: 390 (74) pmol/L
  Follicles >1.5 cm: 2.29 (1.3)
  LH: 19.1 (12.7) IU/L
[5]; single 20 mg dose on day 3, out of the 9 single-dose treatment cycles
  ovulation: 8 cycles
[5]; single 20 mg dose on day 3, seven patients
  pregnancy achieved: one
[5]; single 20 mg dose vs […] for 5 days
  characteristics of the single dose treatment cycles versus the 5-day treatment cycles: no significant difference
